Patent US8058311B2, “Imaging 18F or 11C-labelled alkylthiophenyl guanidines” (Hammersmith Imanet Limited, priority 2005, dated 2011)

Test: Biodistribution: radioactivity in rat peripheral organs and body fluids after intravenous injection
Format: in vivo
Protocol: N-(2-Chloro-5-(2-[^18F]fluoro-ethylthio))-phenyl-N′-(3-methylthio)-phenyl-N′-methylguanidine was prepared according to Example 4 (synthesis formulation ˜3% ethanol in 0.9% w/v saline solution) with a radiochemical purity of ˜99% and, at time of injection, the specific activity ranged from 4-16 GBq/nmol^−1. Biodistribution and blood data were from 11 adult male Sprague-Dawley rats (body weight range, 269 to 329 g; mean±S.E.=300±18 g). N-(2-Chloro-5-(2-[^18F]fluoro-ethylthio))-phenyl-N′-(3-methylthio)-phenyl-N′-methylguanidine was injected directly into the tail vein of each rat whilst under isoflurane anaesthesia. Each animal was then allowed to recover from anaesthesia. At designated times after injection, rats were sacrificed by cervical dislocation under anaesthesia and brain and body tissues were rapidly sampled.
The data were acquired using two syntheses. Rats were given an average of 86 MBq (85.3 MBq for first experimental day and 87.3 MBq for the second experimental day), in a volume of 0.20 ml (synthesis formulation ˜3% alcohol), via direct intravenous injection through the tail vein. The mass of co-injected N-(2-Chloro-5-(2-[^18F]fluoro-ethylthio))-phenyl-N′-(3-methylthio)-phenyl-N′-methylguanidine ranged from 0.7-2.9 nmol.kg^−1. Details of the methodology, together with processing and counting of the samples can be found in Hume et al., Nucl. Med. Biol. (1991) 18: 339-351. Data were normalised for injected radioactivity and body weight, giving: ‘uptake units’=(cpm.g^−1 wet weight tissue)·(injected cpm.g^−1 body weight)^−1 Results
Radioactivity concentration data are additionally collated in Tables 1 (peripheral tissue) and 2 (brain). As metabolite studies were not carried out, the proportion of the total radioactivity reflecting label associated with parent N-(2-Chloro-5-(2-[^18F]fluoro-ethylthio))-phenyl-N′-(3-methylthio)-phenyl-N′-methylguanidine is not known. Note, Blood and plasma samples were collected post-mortem from the heart ventricle.

SMILES: CSc1cccc(N(C)C(=N)Nc2cc(SCC[18F])ccc2Cl)c1 [N-(2-Chloro-5-(2-[^18F]fluoro-ethylthio))-phenyl-N′-(3-methylthio)-phenyl-N′-methylguanidine]
- peripheral clearance route: via kidney to urine and via the intestine
- radioactivity in bone (2 min, n = 1): 1.355 uptake units
- radioactivity in fat (2 min, n = 1): 0.199 uptake units
- radioactivity in heart (ventricle) (2 min, n = 1): 6.412 uptake units
- radioactivity in kidney (2 min, n = 1): 12.975 uptake units
- radioactivity in large intestinal content (2 min, n = 1): 0.113 uptake units
- radioactivity in large intestine (2 min, n = 1): 3.338 uptake units
- radioactivity in liver (2 min, n = 1): 5.251 uptake units
- radioactivity in lung (2 min, n = 1): 32.475 uptake units
- radioactivity in skeletal muscle (2 min, n = 1): 0.288 uptake units
- radioactivity in skin (2 min, n = 1): 0.338 uptake units
- radioactivity in small intestinal content (2 min, n = 1): 1.390 uptake units
- radioactivity in small intestine (2 min, n = 1): 4.537 uptake units
- radioactivity in spleen (2 min, n = 1): 3.985 uptake units
- radioactivity in stomach (2 min, n = 1): 0.843 uptake units
- radioactivity in testis (2 min, n = 1): 0.456 uptake units
- radioactivity in urine (2 min, n = 1): 0.109 uptake units
- radioactivity in bone (5 min, n = 1): 1.440 uptake units
- radioactivity in fat (5 min, n = 1): 0.814 uptake units
- radioactivity in heart (ventricle) (5 min, n = 1): 2.761 uptake units
- radioactivity in kidney (5 min, n = 1): 10.113 uptake units
- radioactivity in large intestinal content (5 min, n = 1): 0.148 uptake units
- radioactivity in large intestine (5 min, n = 1): 3.442 uptake units
- radioactivity in liver (5 min, n = 1): 5.648 uptake units
- radioactivity in lung (5 min, n = 1): 25.015 uptake units
- radioactivity in skeletal muscle (5 min, n = 1): 0.517 uptake units
- radioactivity in skin (5 min, n = 1): 0.517 uptake units
- radioactivity in small intestinal content (5 min, n = 1): 1.449 uptake units
- radioactivity in small intestine (5 min, n = 1): 3.845 uptake units
- radioactivity in spleen (5 min, n = 1): 3.676 uptake units
- radioactivity in stomach (5 min, n = 1): 1.245 uptake units
- radioactivity in testis (5 min, n = 1): 0.528 uptake units
- radioactivity in urine (5 min, n = 1): 16.760 uptake units
- radioactivity in bone (10 min, n = 2): 0.793 uptake units
- radioactivity in fat (10 min, n = 2): 0.234 uptake units
- radioactivity in heart (ventricle) (10 min, n = 2): 1.119 uptake units
- radioactivity in kidney (10 min, n = 2): 3.931 uptake units
- radioactivity in large intestinal content (10 min, n = 2): 0.109 uptake units
- radioactivity in large intestine (10 min, n = 2): 1.359 uptake units
- radioactivity in liver (10 min, n = 2): 3.199 uptake units
- radioactivity in lung (10 min, n = 2): 10.229 uptake units
- radioactivity in skeletal muscle (10 min, n = 2): 0.391 uptake units
- radioactivity in skin (10 min, n = 2): 0.248 uptake units
- radioactivity in small intestinal content (10 min, n = 2): 1.162 uptake units
- radioactivity in small intestine (10 min, n = 2): 1.618 uptake units
- radioactivity in spleen (10 min, n = 2): 3.008 uptake units
- radioactivity in stomach (10 min, n = 2): 0.532 uptake units
- radioactivity in testis (10 min, n = 2): 0.363 uptake units
- radioactivity in urine (10 min, n = 2): 13.589 uptake units
- radioactivity in bone (30 min, n = 3): 1.014 ± 0.019 uptake units
- radioactivity in fat (30 min, n = 3): 0.613 ± 0.175 uptake units
- radioactivity in heart (ventricle) (30 min, n = 3): 0.740 ± 0.019 uptake units
- radioactivity in kidney (30 min, n = 3): 3.287 ± 0.208 uptake units
- radioactivity in large intestinal content (30 min, n = 3): 0.445 ± 0.035 uptake units
- radioactivity in large intestine (30 min, n = 3): 1.619 ± 0.494 uptake units
- radioactivity in liver (30 min, n = 3): 6.023 ± 0.699 uptake units
- radioactivity in lung (30 min, n = 3): 3.786 ± 0.292 uptake units
- radioactivity in skeletal muscle (30 min, n = 3): 0.487 ± 0.036 uptake units
- radioactivity in skin (30 min, n = 3): 0.491 ± 0.019 uptake units
- radioactivity in small intestinal content (30 min, n = 3): 6.002 ± 3.338 uptake units
- radioactivity in small intestine (30 min, n = 3): 2.241 ± 0.617 uptake units
- radioactivity in spleen (30 min, n = 3): 2.713 ± 0.086 uptake units
- radioactivity in stomach (30 min, n = 3): 1.558 ± 0.443 uptake units
- radioactivity in testis (30 min, n = 3): 0.619 ± 0.081 uptake units
- radioactivity in urine (30 min, n = 3): 49.593 ± 30.733 uptake units
- radioactivity in bone (60 min, n = 3): 0.944 ± 0.305 uptake units
- radioactivity in fat (60 min, n = 3): 0.405 ± 0.358 uptake units
- radioactivity in heart (ventricle) (60 min, n = 3): 0.505 ± 0.104 uptake units
- radioactivity in kidney (60 min, n = 3): 2.429 ± 0.527 uptake units
- radioactivity in large intestinal content (60 min, n = 3): 1.176 ± 1.109 uptake units
- radioactivity in large intestine (60 min, n = 3): 7.291 ± 10.308 uptake units
- radioactivity in liver (60 min, n = 3): 3.659 ± 0.822 uptake units
- radioactivity in lung (60 min, n = 3): 2.387 ± 0.195 uptake units
- radioactivity in skeletal muscle (60 min, n = 3): 0.410 ± 0.096 uptake units
- radioactivity in skin (60 min, n = 3): 0.435 ± 0.109 uptake units
- radioactivity in small intestinal content (60 min, n = 3): 10.518 ± 7.766 uptake units
- radioactivity in small intestine (60 min, n = 3): 1.841 ± 0.678 uptake units
- radioactivity in spleen (60 min, n = 3): 1.675 ± 0.135 uptake units
- radioactivity in stomach (60 min, n = 3): 1.227 ± 0.351 uptake units
- radioactivity in testis (60 min, n = 3): 0.605 ± 0.150 uptake units
- radioactivity in urine (60 min, n = 3): 23.375 ± 18.208 uptake units
- radioactivity in bone (90 min, n = 1): 0.889 uptake units
- radioactivity in fat (90 min, n = 1): 0.548 uptake units
- radioactivity in heart (ventricle) (90 min, n = 1): 0.464 uptake units
- radioactivity in kidney (90 min, n = 1): 2.127 uptake units
- radioactivity in large intestinal content (90 min, n = 1): 0.764 uptake units
- radioactivity in large intestine (90 min, n = 1): 0.775 uptake units
- radioactivity in liver (90 min, n = 1): 2.856 uptake units
- radioactivity in lung (90 min, n = 1): 2.150 uptake units
- radioactivity in skeletal muscle (90 min, n = 1): 0.357 uptake units
- radioactivity in skin (90 min, n = 1): 0.387 uptake units
- radioactivity in small intestinal content (90 min, n = 1): 8.700 uptake units
- radioactivity in small intestine (90 min, n = 1): 1.942 uptake units
- radioactivity in spleen (90 min, n = 1): 1.418 uptake units
- radioactivity in stomach (90 min, n = 1): 1.103 uptake units
- radioactivity in testis (90 min, n = 1): 0.559 uptake units
- radioactivity in urine (90 min, n = 1): 26.947 uptake units
- de-fluorination (from bone uptake) (90 minutes): no evidence of de-fluorination
- uptake in lung (at 90 minutes): 2 uptake units
- initial uptake in bone (initial): 1.4
- initial uptake in lung (initial): ~30 uptake units
- initial content in skeletal muscle, skin and testis (low, retained over the course of the experiment): ~0.4 uptake units
- uptake in bone after decrease (over the 90 minutes of the experiment): ~0.8
